Laboratory results reported in ChEMBL document CHEMBL1201862, “PubChem BioAssay data set” (2004).
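Exposure lasted 48 hours, with cells grown in 96-well plates and compounds tested at five concentrations. The concentration for 50% growth inhibition is given as GI50.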 Activity calls are given as the source filed them. Cut-off read from the data, not from the text of the source: active = GI50 up to about 1.1 µM and inactive = higher.

Key:
Assay in all cases: NCI-60 cell line screen, 48 h
UO-31 = test system: UO-31
OVCAR-3 = test system: OVCAR-3
A549 = test system: A549
A498 = test system: A498
CAKI-1 = test system: CAKI-1
HOP-92 = test system: HOP-92
UACC-257 = test system: UACC-257
TK-10 = test system: TK-10
HCC 2998 = test system: HCC 2998
NCI-H23 = test system: NCI-H23
HT-29 = test system: HT-29
RPMI-8226 = test system: RPMI-8226
SNB-19 = test system: SNB-19
M14 = test system: M14
U-251 = test system: U-251
NCI/ADR-RES = test system: NCI/ADR-RES
PC-3 = test system: PC-3
MDA-MB-231 = test system: MDA-MB-231
T47D = test system: T47D

Measured: GI50

CCOC(=O)C1N(S(=O)(=O)c2ccc(C)cc2)CCC12C(c1ccc(OC)c(OC)c1)=Nc1ccccc12 (stereo unspecified)
inactive: UO-31 > 100 µM | OVCAR-3 > 100 µM | A549 > 100 µM | A498 > 100 µM | CAKI-1 > 100 µM | HOP-92 28.5 µM | UACC-257 > 100 µM | TK-10 > 100 µM | HCC 2998 > 100 µM | NCI-H23 > 100 µM | HT-29 > 100 µM | RPMI-8226 > 100 µM | SNB-19 > 100 µM | M14 > 100 µM | U-251 > 100 µM

CCN(CC)CCN(C)CC(C)(C)C(=O)/C=C/c1ccccc1
inactive: UO-31 13.4 µM | OVCAR-3 13.5 µM | A549 16.4 µM | A498 4.11 µM | CAKI-1 11.8 µM | HOP-92 3.99 µM | UACC-257 11.7 µM | TK-10 22.2 µM | HCC 2998 14.5 µM | NCI-H23 12.6 µM | HT-29 11.2 µM | RPMI-8226 4.15 µM | SNB-19 15.1 µM | M14 13 µM | U-251 10.4 µM

CC(=O)N/C(=C\c1cccc([N+](=O)[O-])c1)c1nc2ccc3c(c2[nH]1)C(=O)c1ccccc1C3=O
inactive: UO-31 3.62 µM | OVCAR-3 > 100 µM | A549 26.6 µM | A498 22.8 µM | CAKI-1 11.7 µM | HOP-92 > 50.4 µM | TK-10 > 56 µM | HCC 2998 > 100 µM | NCI-H23 39.8 µM | HT-29 > 100 µM | RPMI-8226 5.04 µM | SNB-19 > 100 µM | M14 70.3 µM | U-251 45.6 µM

COc1cc2nc(-c3cccs3)nc(N3CCN(c4ccccc4)CC3)c2cc1OC
inactive: NCI/ADR-RES > 100 µM | UO-31 > 100 µM | OVCAR-3 > 100 µM | PC-3 > 100 µM | A549 > 100 µM | A498 > 100 µM | CAKI-1 > 100 µM | HOP-92 > 100 µM | UACC-257 > 100 µM | TK-10 > 100 µM | MDA-MB-231 > 100 µM | NCI-H23 > 100 µM | HT-29 > 100 µM | RPMI-8226 > 100 µM | SNB-19 68.1 µM | M14 > 100 µM | U-251 > 100 µM | T47D > 100 µM

COc1ccc2c(c1)CC1c3c(ccc(OC)c3O)CC2N1C (stereo unspecified)
inactive: UO-31 30.8 µM | OVCAR-3 29.2 µM | A549 57.3 µM | A498 > 100 µM | CAKI-1 40 µM | HOP-92 28.1 µM | UACC-257 23.1 µM | TK-10 64.4 µM | HCC 2998 16.8 µM | NCI-H23 43.6 µM | HT-29 22.9 µM | RPMI-8226 20.9 µM | SNB-19 47.6 µM | M14 16.5 µM | U-251 25.1 µM

CN(C)c1ccc(/C=c2\sc3nnc(Cc4ccccc4)n3c2=O)cc1
inactive: UO-31 > 100 µM | OVCAR-3 > 10 µM | A549 37 µM | A498 > 10 µM | CAKI-1 > 10 µM | HOP-92 > 100 µM | UACC-257 > 10 µM | TK-10 > 10 µM | HCC 2998 > 100 µM | NCI-H23 > 10 µM | HT-29 62.5 µM | RPMI-8226 > 10 µM | SNB-19 > 10 µM | M14 > 10 µM | U-251 > 10 µM

CC(C)N(C(=O)c1cccc(C(=O)N(C(C)C)C(C)C)c1)C(C)C
inactive: UO-31 > 100 µM | OVCAR-3 > 100 µM | A549 > 100 µM | A498 > 100 µM | CAKI-1 > 100 µM | HOP-92 > 100 µM | UACC-257 > 100 µM | TK-10 > 100 µM | HCC 2998 > 100 µM | NCI-H23 > 100 µM | HT-29 > 100 µM | RPMI-8226 24.9 µM | SNB-19 > 100 µM | M14 > 100 µM | U-251 > 100 µM

CSC1(CC(=O)N(C)C)C(=O)Nc2ccccc21 (stereo unspecified)
inactive: NCI/ADR-RES > 100 µM | UO-31 > 100 µM | OVCAR-3 > 100 µM | PC-3 > 100 µM | A549 > 100 µM | A498 > 100 µM | UACC-257 > 100 µM | TK-10 > 100 µM | HCC 2998 > 100 µM | NCI-H23 > 100 µM | HT-29 > 100 µM | RPMI-8226 > 100 µM | SNB-19 > 100 µM | M14 > 100 µM | U-251 > 100 µM | T47D > 100 µM

CC1=NN(c2nc(N)nc(CC#N)n2)C(C)(C)C1
inactive: NCI/ADR-RES > 100 µM | UO-31 > 100 µM | PC-3 > 100 µM | A498 > 100 µM | CAKI-1 > 100 µM | HOP-92 > 100 µM | UACC-257 > 100 µM | TK-10 > 100 µM | MDA-MB-231 > 100 µM | HCC 2998 > 100 µM | NCI-H23 > 100 µM | HT-29 > 100 µM | RPMI-8226 > 100 µM | SNB-19 > 100 µM | M14 > 100 µM | U-251 > 100 µM | T47D > 100 µM

O=[N+]([O-])c1ccc(Cc2nc3cc4ccccc4cc3[nH]2)cc1C(F)(F)F
inactive: NCI/ADR-RES 11.4 µM | UO-31 15.8 µM | OVCAR-3 10.7 µM | PC-3 15.4 µM | A549 13.9 µM | A498 17.7 µM | CAKI-1 11.6 µM | HOP-92 14.9 µM | UACC-257 14.1 µM | TK-10 20.2 µM | HCC 2998 16.6 µM | NCI-H23 12.5 µM | HT-29 14.3 µM | SNB-19 15.6 µM | M14 12.4 µM | U-251 14.8 µM | T47D 3.33 µM

CCOC(=O)C1(C)CCC(C(C(=O)O)C(=O)O)CC1=O (stereo unspecified)
inactive: UO-31 > 100 µM | OVCAR-3 > 100 µM | A549 > 100 µM | A498 > 100 µM | CAKI-1 > 100 µM | HOP-92 > 100 µM | UACC-257 > 100 µM | TK-10 > 100 µM | HCC 2998 > 100 µM | HT-29 > 100 µM | RPMI-8226 > 100 µM | SNB-19 > 100 µM | M14 > 100 µM | U-251 > 100 µM

CC(C)Cc1ccc(C(C)/C=C2\CCC(CN3CCCC3)C2=O)cc1 (stereo unspecified)
inactive: UO-31 15.9 µM | OVCAR-3 3.69 µM | A549 18.3 µM | A498 21.6 µM | CAKI-1 13.6 µM | HOP-92 19.1 µM | UACC-257 16.7 µM | TK-10 3.69 µM | HCC 2998 7.08 µM | NCI-H23 11.5 µM | HT-29 8.09 µM | RPMI-8226 1.84 µM | SNB-19 12.4 µM | M14 13.8 µM | U-251 5.87 µM
